Assay results reported in the supplement of paper PMC10307832.

What was measured:
Assay in all cases: relative viability (nuclei count vs DMSO), 5 days (fraction); higher = more cells survive
[1] = compound: C=C(c1ccc(C(=O)O)cc1)c1cc2c(cc1C)C(C)(C)CCC2(C)C [Bexarotene] + C[C@]1(O)C[C@@H](c2nc(-c3ccc4ccc(-c5ccccc5)nc4c3)c3c(N)nccn32)C1 [Linsitinib] (partner 1 µM)
Outline: (§1)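 After 5 days of treatment, lung cancer cells in 1536-well plates were fixed and stained in a single step (final 0.05% Triton X-100, 1% formaldehyde, 1 ug/ml Hoechst) and their nuclei counted on 4× images. Treatment had been applied by pin tool the day after seeding as one drug alone or as a fixed anchor-drug dose with five library-drug doses (not always all listed) in √10 steps. Relative viability is the nuclei count of treated wells divided by that of vehicle wells, and values are medians of duplicate plates.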

[2] = compound: C=C(c1ccc(C(=O)O)cc1)c1cc2c(cc1C)C(C)(C)CCC2(C)C [Bexarotene] + CS(=O)(=O)N1CCN(Cc2cc3nc(-c4cccc5[nH]ncc45)nc(N4CCOCC4)c3s2)CC1 [Pictilisib] (partner 1 µM)
Outline: as §1

[3] = compound: C=C(c1ccc(C(=O)O)cc1)c1cc2c(cc1C)C(C)(C)CCC2(C)C [Bexarotene] + Cc1nc(NC(=O)N2CCC[C@H]2C(N)=O)sc1-c1ccnc(C(C)(C)C(F)(F)F)c1 [Alpelisib] (partner 2 µM)
Outline: as §1

[4] = compound: C=C(c1ccc(C(=O)O)cc1)c1cc2c(cc1C)C(C)(C)CCC2(C)C [Bexarotene] + Nc1ncn([C@H]2C[C@H](O)[C@@H](CO)O2)c(=O)n1 [Decitabine] (partner 2 µM)
Outline: as §1

| Cell Line | relative viability ([1]; first compound 0.08 µM) | relative viability ([1]; first compound 0.253 µM) | relative viability ([1]; first compound 0.8 µM) | relative viability ([1]; first compound 2.53 µM) | relative viability ([1]; first compound 8 µM) | relative viability ([2]; first compound 0.08 µM) | relative viability ([2]; first compound 0.253 µM) | relative viability ([2]; first compound 0.8 µM) | relative viability ([2]; first compound 2.53 µM) | relative viability ([2]; first compound 8 µM) | relative viability ([3]; first compound 0.08 µM) | relative viability ([3]; first compound 0.253 µM) | relative viability ([3]; first compound 0.8 µM) | relative viability ([3]; first compound 2.53 µM) | relative viability ([3]; first compound 8 µM) | relative viability ([4]; first compound 0.08 µM) | relative viability ([4]; first compound 0.253 µM) | relative viability ([4]; first compound 0.8 µM) | relative viability ([4]; first compound 8 µM) | relative viability ([4]; first compound 2.53 µM) |
| --- | --- | --- | --- | --- | --- | --- | --- | --- | --- | --- | --- | --- | --- | --- | --- | --- | --- | --- | --- | --- |
| ABC-1 | 0.74 | 0.77 | 0.741 | 0.683 | 0.654 | 0.662 | 0.63 | 0.606 | 0.697 | 0.615 | 0.714 | 0.892 | 0.949 | 0.953 | 0.87 | 1.21 | 0.927 | 1.12 | 1.09 | – |
| COR-L23 | 0.936 | 0.984 | 0.641 | 0.737 | 0.762 | 0.735 | 0.759 | 0.5 | 0.67 | 0.52 | 0.872 | 0.768 | 0.555 | 0.685 | 0.757 | 0.47 | 0.455 | 0.438 | 0.416 | 0.452 |
| NCI-H661 | 0.533 | 0.611 | 0.437 | 0.587 | 0.549 | 0.438 | 0.362 | 0.397 | 0.362 | 0.35 | 0.664 | 0.587 | 0.776 | 0.5 | 0.645 | 0.606 | 0.542 | 0.559 | 0.496 | 0.509 |
| ChaGo-K-1 | – | – | – | – | – | 0.902 | 0.679 | 0.875 | – | 0.801 | – | – | – | – | – | 0.57 | 0.512 | 0.509 | 0.497 | 0.489 |
| NCI-H1650 | – | – | – | – | – | 0.669 | 0.544 | 0.527 | 0.537 | 0.527 | – | – | – | – | – | 0.447 | 0.453 | 0.438 | 0.45 | 0.403 |
| EBC-1 | 0.954 | 0.89 | 0.783 | 0.929 | 1.06 | 0.395 | 0.481 | 0.476 | 0.474 | 0.475 | 1.22 | 0.989 | 0.756 | 0.89 | 0.868 | – | – | – | – | – |
| NCI-H1703 | 0.846 | 1.02 | 1.02 | 0.619 | 0.629 | 0.247 | 0.239 | 0.209 | 0.247 | 0.262 | 0.423 | 0.364 | 0.402 | 0.242 | 0.324 | – | – | – | – | – |
| CAL-12T | 0.682 | 0.894 | 0.727 | 0.707 | 0.656 | 0.333 | – | 0.396 | – | 0.361 | 1.29 | 1.3 | 1.33 | 1.17 | 0.94 | – | – | – | – | – |
| NCI-H1563 | 1.21 | 1.28 | 1.03 | 1.06 | 1.04 | 0.736 | 0.647 | 0.685 | 0.696 | 0.661 | 0.947 | 0.804 | 0.955 | 0.973 | 0.839 | – | – | – | – | – |
| NCI-H2170 | – | – | – | – | – | 0.352 | 0.307 | 0.302 | 0.271 | 0.268 | 0.762 | 0.777 | 0.782 | 0.759 | 0.66 | 0.438 | 0.463 | 0.446 | 0.465 | 0.417 |
